≈ marks a conversion by molar mass, not a printed value.
Key:
[1] = ref Scifinder, 2015; Chemspider; cited from earlier work
CpomOR3 = assay: Single sensillum recordings, CpomOR3 expressed in Drosophila ab3A OSNs; type: cell-based, Cydia pomonella; details: dose loaded in the stimulus cartridge
From the text: To perform heterologous expression in D. melanogaster OSNs, CpomORs were amplified using primers in Table 2 and purified PCR products were cloned into the PCR8/GW/TOPO plasmid (Invitrogen) following the recommended protocol. Cassettes with inserts were then transferred from their PCR8/GW/TOPO plasmids to the destination vector (pUASg-HA.attB, constructed by E. Furger and J. Bischof, kindly provided by the Basler group, Zürich), using the Gateway LR Clonase II kit (Invitrogen). The integrity and orientation of inserts was confirmed by sequencing (Sanger sequencer, 3730xl). […]
CpomOR1 and CpomOR6a expressed in at1 OSNs, and CpomOR3 expressed in ab3A OSNs, were tested through single sensillum recordings (SSR). […] The reference electrode was manually inserted in the right eye of the fly, while the recording electrode was manoeuvred with a DC-3K micromanipulator equipped with a PM-10 piezo translator (Märzhäuser Wetzler GmbH, Wetzler, Germany) and inserted at the base of the determined sensilla. Signals coming from the olfactory sensory neurons were amplified 10 times with a probe (INR-02, Syntech, Hilversum, the Netherlands), digitally converted through an IDAC-4-USB (Syntech) interface, and visualized and analysed with the software Autospike v. […]

CpomOrco + OR3 = molecular target: T1, CpomOrco + OR3 (Cydia pomonella, UniProt H9A5M3); assay: Calcium imaging of HEK293T cells expressing CpomOrco + OR3; type: cell-based
T1 sequence (H9A5M3 1-426): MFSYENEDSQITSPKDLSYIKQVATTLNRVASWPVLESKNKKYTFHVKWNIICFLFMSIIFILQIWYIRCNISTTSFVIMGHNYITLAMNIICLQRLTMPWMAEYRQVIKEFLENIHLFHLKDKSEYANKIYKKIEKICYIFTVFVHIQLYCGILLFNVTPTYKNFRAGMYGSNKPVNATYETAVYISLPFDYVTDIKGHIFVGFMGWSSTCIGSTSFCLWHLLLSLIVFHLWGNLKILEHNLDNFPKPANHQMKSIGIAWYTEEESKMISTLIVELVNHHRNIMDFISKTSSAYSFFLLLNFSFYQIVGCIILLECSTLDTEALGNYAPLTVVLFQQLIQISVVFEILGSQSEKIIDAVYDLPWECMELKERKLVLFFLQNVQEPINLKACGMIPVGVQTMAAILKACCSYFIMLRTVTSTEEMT
T1 sequence (H9A5M2 1-473 partner): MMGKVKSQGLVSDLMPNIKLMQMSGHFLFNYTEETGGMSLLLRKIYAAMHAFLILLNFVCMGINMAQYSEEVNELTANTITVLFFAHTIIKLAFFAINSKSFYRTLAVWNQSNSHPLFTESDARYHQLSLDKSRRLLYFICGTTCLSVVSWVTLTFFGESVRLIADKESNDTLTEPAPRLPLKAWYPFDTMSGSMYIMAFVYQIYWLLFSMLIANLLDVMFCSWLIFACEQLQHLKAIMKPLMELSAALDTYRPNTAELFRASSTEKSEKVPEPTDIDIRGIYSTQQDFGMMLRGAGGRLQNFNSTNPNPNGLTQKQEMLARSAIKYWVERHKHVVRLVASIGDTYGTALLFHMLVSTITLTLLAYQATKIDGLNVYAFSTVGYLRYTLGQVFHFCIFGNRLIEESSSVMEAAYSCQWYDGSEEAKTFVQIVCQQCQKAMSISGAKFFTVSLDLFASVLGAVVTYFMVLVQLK
Method: HEK293T cells were grown in HEK cell media [Dulbecco’s modified Eagle’s medium containing 10% fetal bovine serum (MP Biomedicals, Solon, OH, USA), 2.0 mM L-glutamine, and 100 μg/mL Penicillin/Streptomycin (Invitrogen)] at 37 °C and 5% CO2. To test transient expression of CpomORs for calcium imaging or patch-clamp recording experiments, 35-mm petri dishes containing semi-confluent HEK293T cells were transiently transfected. To transfect cells with CpomOrco, we used 1.0 μg of pcDNA5/TO/CpomOrco DNA. In order to promote expression of the OR[51], we used double aliquots for pcDNA5/TO/CpomOR DNAs (2.0 μg), combined with 1.0 μg of pcDNA5/TO/CpomOrco for co-transfections (CpomOrco + ORs). […] In order to report candidate OR-expressing cells, expression of both fluorescent reporter genes was under the regulation of the same promoter for CpomOR genes (CMV). Transfection DNAs were dissolved in 100 μL sterile DMEM, mixed with 3.0 μL Calfectin (SignaGen, Rockville, MD, USA) following the recommended protocol.
Transfections were conducted overnight. HEK cell media was replaced with 1.0 mL fresh media to incubate cells at 37 °C for up to 6 h, at which point part of the cell culture was spread in the middle of a 35-mm plate as individual cells or small clusters. After 12 h of incubation at 37 °C and 5% CO2, cells were rinsed at the sides with 2.0 mL fresh HEK media. Cells were allowed to recover for at least 1 h prior to calcium imaging.
After incubation, the buffer was removed and cells were rinsed with 4.0 mL fresh HEK Ca^++ Ringer (mM: 140 NaCl, 2.0 CaCl2, 10 HEPES, pH 7.5), and placed on the stage of an inverted microscope (Olympus IX-71, Olympus Corp., Tokyo, Japan) equipped with a cooled CCD camera (ORCA R2, Hamamatsu, Hamamatsu City, Japan). Cells were continuously superfused with Ca^++ Ringer using two gravity fed perfusion contours. The stimulating contour washing the cells (~250 μL/min) was switched rapidly to the stimulus contour using a multi-channel rapid solution changer (RSC-160, Bio-Logic, Claix, France) under the software control of Clampex 9 (Molecular Devices, Sunnyvale, CA, USA).
Fluorescence imaging was performed using Imaging Workbench 6 software (INDEC BioSystems, Santa Clara, CA, USA). Each cell was assigned a region of interest (ROI) and changes in fluorescence intensity within each ROI were measured and expressed as the fractional change in fluorescence intensity (dF) or in some cases as dF/F0 where F0 is the basal fluorescence level before agonist application. […] Continuous traces of multiple responses were compensated for slow drift of the baseline fluorescence when necessary. All recordings were performed at room temperature (22–25 °C).
Compounds were diluted in either DMSO or ethanol (Sigma Aldrich) depending on their solubility properties. […]

CpomOrco = CpomOrco (Cydia pomonella, UniProt H9A5M2); assay: Calcium imaging of HEK293T cells expressing homomeric CpomOrco; type: cell-based; details: peak amplitudes normalized to response at 1000 μM agonist, read-out: [A]1/2 half-effective concentration of agonist, calcium response
Method: HEK293T cells were grown in HEK cell media [Dulbecco’s modified Eagle’s medium containing 10% fetal bovine serum (MP Biomedicals, Solon, OH, USA), 2.0 mM L-glutamine, and 100 μg/mL Penicillin/Streptomycin (Invitrogen)] at 37 °C and 5% CO2. To test transient expression of CpomORs for calcium imaging or patch-clamp recording experiments, 35-mm petri dishes containing semi-confluent HEK293T cells were transiently transfected. To transfect cells with CpomOrco, we used 1.0 μg of pcDNA5/TO/CpomOrco DNA. In order to promote expression of the OR[51], we used double aliquots for pcDNA5/TO/CpomOR DNAs (2.0 μg), combined with 1.0 μg of pcDNA5/TO/CpomOrco for co-transfections (CpomOrco + ORs). […]
(§1) Fluorescence imaging was performed using Imaging Workbench 6 software (INDEC BioSystems, Santa Clara, CA, USA). Each cell was assigned a region of interest (ROI) and changes in fluorescence intensity within each ROI were measured and expressed as the fractional change in fluorescence intensity (dF) or in some cases as dF/F0 where F0 is the basal fluorescence level before agonist application. […] Continuous traces of multiple responses were compensated for slow drift of the baseline fluorescence when necessary. […]

CpomOrco + OR complexes = assay: Calcium imaging of HEK293T cells expressing heteromeric CpomOrco + OR complexes; type: cell-based, Cydia pomonella
Method: HEK293T cells were grown in HEK cell media [Dulbecco’s modified Eagle’s medium containing 10% fetal bovine serum (MP Biomedicals, Solon, OH, USA), 2.0 mM L-glutamine, and 100 μg/mL Penicillin/Streptomycin (Invitrogen)] at 37 °C and 5% CO2. To test transient expression of CpomORs for calcium imaging or patch-clamp recording experiments, 35-mm petri dishes containing semi-confluent HEK293T cells were transiently transfected. To transfect cells with CpomOrco, we used 1.0 μg of pcDNA5/TO/CpomOrco DNA. In order to promote expression of the OR[51], we used double aliquots for pcDNA5/TO/CpomOR DNAs (2.0 μg), combined with 1.0 μg of pcDNA5/TO/CpomOrco for co-transfections (CpomOrco + ORs). To report expression for calcium imaging experiments, 1.0 μg of a separate plasmid DNA [pEBFP2-Nuc, a gift from Robert Campbell (Addgene plasmid # 14893[52])] carrying the coding sequence for a blue fluorescent protein (BFP) was used. In patch-clamp recordings, 1.0 μg of a separate plasmid DNA (pXOOM, Clontech) carrying the coding sequence for a green fluorescent protein (GFP) was used to report expression. In order to report candidate OR-expressing cells, expression of both fluorescent reporter genes was under the regulation of the same promoter for CpomOR genes (CMV). Transfection DNAs were dissolved in 100 μL sterile DMEM, mixed with 3.0 μL Calfectin (SignaGen, Rockville, MD, USA) following the recommended protocol. To estimate transfection efficiency, a parallel transfection was conducted using the positive control vector pcDNA5/TO/LACZ (Invitrogen) and staining with 0.1% XGal[53]. […]
as §1

## CC(C=O)Cc1ccc2c(c1)OCO2 (stereo not drawn) [helional]
[1]
  LogP: 1.982±0.343

## CCCCC/C=C\C=C\C(=O)OC [(E,Z)-MD, methyl (E,Z)-2,4-decadienoate]
CpomOR3
  minimum dose to elicit a response significantly different from the solvent: 10 µg
CpomOrco + OR3; 500 μM, n = 151
  amplitude of the calcium response (mean of the maximum response ± SEM): 10.40 ± 5.91 dF
CpomOrco + OR3; calcium response normalized to 250 μM VUAA3
  EC50: 1080 ± 113 µM

## CCC/C=C/C=O [trans-2-hexenal]
[1]
  LogP: 1.790±0.281

## O=CCc1ccccc1 [phenyl acetaldehyde]
[1]
  LogP: 1.760±0.224
  Solubility (M): 0,016 M

## O=Cc1ccc2c(c1)OCO2 [heliotropin]
[1]
  LogP: 1.050±0.302

## C/C=C/c1ccc(OC)c(OC)c1 [methyl-iso-eugenol]
[1]
  LogP: 3.049±0.239
  Solubility: 3.6 mM (≈ 642 µg/mL)

## CCCCCO [1-pentanol]
[1]
  LogP: 1.348±0.176
  Solubility (M): 0,24 M

## CC(=O)CCC=C(C)C [6-methyl-5-hepten-2-one]
[1]
  LogP: 1.947±0.238
  Solubility: 52 mM (≈ 6560 µg/mL)

## CCc1ccc(NC(=O)CSc2nnc(-c3cccnc3)n2CC)cc1 [VUAA1, acetamide,N-(4-ethylphenyl)-2-[[4-ethyl-5-(3-pyridinyl)-4H-1,2,4-triazol-3-yl]thio]-]
CpomOrco
  EC50: ~520 µM
CpomOrco + OR complexes; heteromeric complexes, peak amplitudes normalized to response at 1000 μM agonist, read-out: [A]1/2 half-effective concentration of agonist, calcium response
  EC50: ~150 µM

## CC(C)CCC(=O)c1ccoc1 [3-(4-methyl-1-oxopentyl)furan-]
[1]
  LogP: 2.851 ± 0.318
  Solubility: 2.1 mM (≈ 349 µg/mL)

## C/C=C/c1ccc2c(c1)OCO2 [isosafrol]
[1]
  LogP: 3.904±0.349
  Solubility (M): 5,90E-04 M

## CCC/C=C/C=O [(E)-2-hexenal]
[1]
  LogP: 1.790±0.281
  Solubility (M): 0,09 M

## C=C(C)[C@@H]1CCC2=CC(=O)C[C@@H](C)[C@]2(C)C1 [(+)-nootkatone]
[1]
  LogP: 3.765±0.275
  Solubility (M): 2,40E-04 M

## O=Cc1ccccc1 [benzaldehyde]
[1]
  LogP: 1.452±0.242
  Solubility (M): 0,02 M

## CC/C=C\CCO [(Z)-3-hexenol]
[1]
  Solubility: 140 mM (≈ 14000 µg/mL)

## CCCCC(=O)OC [methyl valerate]
[1]
  LogP: 1.804±0.205

## CC(C)c1ccc(O)cc1 [4-isopropyl phenol]
[1]
  LogP: 2.986±0.200
  Solubility (M): 0,015 M

## CCCCCCCOC(=O)CCC [heptyl butyrate]
[1]
  LogP: 4.352±0.206

## O=C1CCCCC1 [cyclohexanone]
[1]
  LogP: 0.821±0.251
  Solubility: 150 mM (≈ 14700 µg/mL)

## CC(C)(C)c1ccc(CCC=O)cc1 [bourgeonal]
[1]
  LogP: 3.486±0.245
  Solubility (M): 4,50E-04 M

## COCc1ccccc1 [benzyl methyl ether]
[1]
  LogP: 1.843±0.239
  Solubility (M): 0,05 M

## C=CCc1ccc(OC)c(OC)c1 [methyl eugenol]
[1]
  LogP: 2.655±0.243

## COc1cc(C=O)ccc1O [vanillin]
[1]
  Solubility (M): 0,024 M

## CC(C)CCO [3-methyl-1-butanol]
[1]
  LogP: 1.192±0.187
  Solubility (M): 0,34 M

## CC(C)CN(C)c1nc(N)c(C(=O)N=C(N)N)nc1Cl [MIA, 5-(N-methyl-N-isobutyl) amiloride]
CpomOrco + OR complexes; MIA 100 μM applied extracellularly, all heteromeric complexes, only partially reversible
  block of the VUAA3 activated calcium signal: almost completely blocked

— paper PMC5259778, “Candidate pheromone receptors of codling moth Cydia pomonella respond to pheromones and kairomones” (Scientific Reports, 2017)
